A short description of data set [1]: Cytotoxicity against human MT4 cells assessed as reduction in cell viability after 3 days by CellTiter-Glo luminescent assay. Format: cell-based.
Data set [2] has as its system Human immunodeficiency virus 1. The experiment in a line: Antiviral activity against HIV1 NL4-3 infected in human MT4 cells assessed as reduction in viral replication measured on day 3 post infection by Nano-Glo luciferase reporter gene assay. Conditions: Human immunodeficiency virus 1, NL4-3, MT4, 72 h. Format: functional, organism-based.
Data set [3] concerns Human immunodeficiency virus 1. The experiment in a line: Antiviral activity against pseudotype HIV1 CE1176 harboring HIV1 subtype C Env assessed as inhibition of viral infection in human TZM-bl cells measured 2 days post infection by luciferase reporter gene assay. Format: functional, organism-based. Conditions: Human immunodeficiency virus 1, CE1176, TZM-bl, 48 h.
Data set [4] has as its system Human immunodeficiency virus 1. The data set is described as follows: Antiviral activity against pseudotype HIV1 CNE55 harboring HIV1 subtype CRF01_AE Env assessed as inhibition of viral infection in human TZM-bl cells measured 2 days post infection by luciferase reporter gene assay. The settings on record: Human immunodeficiency virus 1, CNE55, TZM-bl, 48 h. Format: functional, organism-based.

The test system of data set [5] is Human immunodeficiency virus 1. The data set is described as follows: Antiviral activity against pseudotype HIV1 CE0217 harboring HIV1 subtype C Env assessed as inhibition of viral infection in human TZM-bl cells measured 2 days post infection by luciferase reporter gene assay. Format: functional, organism-based. The settings on record: Human immunodeficiency virus 1, CE0217, TZM-bl, 48 h.

Data set [6] deals with Human immunodeficiency virus 1. The experiment in a line: Antiviral activity against pseudotype HIV1 X1632 harboring HIV1 subtype G Env assessed as inhibition of viral infection in human TZM-bl cells measured 2 days post infection by luciferase reporter gene assay. Conditions: Human immunodeficiency virus 1, X1632, TZM-bl, 48 h. It is filed as functional, organism-based.
Data set [7] concerns Human immunodeficiency virus 1. The experiment in a line: Antiviral activity against pseudotype HIV1 BJOX2000 harboring HIV1 subtype CRF07_BC Env assessed as inhibition of viral infection in human TZM-bl cells measured 2 days post infection by luciferase reporter gene assay. Format: functional, organism-based. Conditions: Human immunodeficiency virus 1, BJOX2000, TZM-bl, 48 h.

The test system of data set [8] is Human immunodeficiency virus 1. The experiment in a line: Antiviral activity against pseudotype HIV1 25710 harboring HIV1 subtype C Env assessed as inhibition of viral infection in human TZM-bl cells measured 2 days post infection by luciferase reporter gene assay. Format: functional, organism-based. The settings on record: Human immunodeficiency virus 1, 25710, TZM-bl, 48 h.

For data set [9], the system named is Human immunodeficiency virus 1. The experiment in a line: Antiviral activity against pseudotype HIV1 TRO11 harboring HIV1 subtype B Env assessed as inhibition of viral infection in human TZM-bl cells measured 2 days post infection by luciferase reporter gene assay. The settings on record: Human immunodeficiency virus 1, TRO11, TZM-bl, 48 h. It is filed as functional, organism-based.

Data set [10] has as its system Human immunodeficiency virus 1. The data set is described as follows: Antiviral activity against pseudotype HIV1 CH119 harboring HIV1 subtype CRF07_BC Env assessed as inhibition of viral infection in human TZM-bl cells measured 2 days post infection by luciferase reporter gene assay. Conditions: Human immunodeficiency virus 1, CH119, TZM-bl, 48 h. It is filed as functional, organism-based.

Data set [11] can be described thus: Cytotoxicity against human TZM-bl cells at 20 uM. It is filed as cell-based.
The test system of data set [12] is COS. The experiment in a line: Inhibition of HIV1 NL4-3 Env-induced cell-cell fusion between viral envelope expressing African green monkey COS cells to CXCR4 receptor expressing human TZM-bl cells at 0.01 to 10 uM after overnight incubation by Bright-Glo luciferase assay. It is filed as cell-based. Conditions: Human immunodeficiency virus 1.
The test system of data set [13] is Human immunodeficiency virus 1. The experiment in a line: Effect on binding of HIV1 3B gp120 to CD4-IgG2 at 1 to 10 ug/ml by ELISA.
In data set [14] the test system is COS. The experiment in a line: Inhibition of HIV1 YU2 gp120-induced cell-cell fusion between viral envelope expressing African green monkey COS cells to CCR5 receptor expressing human TZM-bl cells at 0.01 to 10 uM after overnight incubation by Bright-Glo luciferase assay. It is filed as cell-based. Conditions: Human immunodeficiency virus type 1 (isolate YU2).

Data set [15] can be described thus: Inhibition of HIV1 YU2 gp120-induced cell-cell fusion between viral envelope expressing African green monkey COS cells to CCR5 receptor expressing human TZM-bl cells after overnight incubation by Bright-Glo luciferase assay. Format: cell-based, Human immunodeficiency virus type 1 (isolate YU2). The settings on record: Human immunodeficiency virus 1, COS.
For data set [16], the system named is COS. The data set is described as follows: Inhibition of BMS-806 resistant HIV1 YU2 gp120 T198P mutant-induced cell-cell fusion between viral envelope expressing African green monkey COS cells to CCR5 receptor expressing human TZM-bl cells at 5 uM after overnight incubation by Bright-Glo luciferase assay. Format: cell-based. Conditions: Human immunodeficiency virus type 1 (isolate YU2).

The test system of data set [17] is COS. The data set is described as follows: Inhibition of HIV1 8X gp120-induced cell-cell fusion between viral envelope expressing African green monkey COS cells and human TZM-bl cells up to 5 uM after overnight incubation by Bright-Glo luciferase assay. Format: cell-based. Conditions: Human immunodeficiency virus 1.
Data set [18] has as its system Human immunodeficiency virus 1. The experiment in a line: Antiviral activity against HIV1 NL4-3 assessed as inhibition of early phase viral infection in human MT4 cells. Format: functional, organism-based.
Data set [19] concerns Human immunodeficiency virus 1. The data set is described as follows: Antiviral activity against HIV1 NL4-3 assessed as inhibition of viral infection in human MT4 cells treated 2 hrs post infection. Format: functional, organism-based.
A short description of data set [20]: Inhibition of HIV1 NL4-3 Env-induced cell-cell fusion between viral envelope expressing African green monkey COS cells to CXCR4 receptor expressing human TZM-bl cells after overnight incubation by Bright-Glo luciferase assay. Format: cell-based. The settings on record: Human immunodeficiency virus 1, NL4-3, COS.
Data set [21] relates to COS. The experiment in a line: Inhibition of BMS-806 resistant HIV1 YU2 gp120 T198P mutant-induced cell-cell fusion between viral envelope expressing African green monkey COS cells to CCR5 receptor expressing human TZM-bl cells at 0.001 to 10 uM after overnight incubation by Bright-Glo luciferase assay. Format: cell-based. The settings on record: Human immunodeficiency virus type 1 (isolate YU2).

Data set [22] deals with COS. The experiment in a line: Inhibition of HIV1 8X gp120-induced cell-cell fusion between viral envelope expressing African green monkey COS cells and human TZM-bl cells at 0.001 to 10 uM after overnight incubation by Bright-Glo luciferase assay. Format: cell-based. Conditions: Human immunodeficiency virus 1.

The source made the active and inactive calls. The calls are words filed in the database; no cut-off is given here.

As for `O=C(Cc1ccc(OC(F)(F)F)cc1)NCCCCN1CCCC2=C[C@H]3C[C@H](CN4CCCC[C@H]34)[C@@H]21`, the CC50 at 72 h in [1] came out at 23000 nM. Further, the EC50 in [2] came out at 750 nM; in data set [3] it was 2200 nM; in data set [4] it was 4300 nM; in data set [5] it was 1400 nM; in data set [6], 2500 nM; in data set [7] it was 2800 nM. The results for the EC50 in data set [8], in data set [9] and in data set [10] were 2100 nM, 1600 nM and 900 nM, respectively. Further, in [11], the Activity entry is recorded as “Non-toxic”. Moreover, the inhibition entry with COS [12] is “Active”. In data set [13], the outcome was inactive.

With `C=C(C)[C@@H]1CC[C@]2(C(=O)NCCCCCCCNC(C)=O)CC[C@]3(C)[C@H](CC[C@@H]4[C@@]5(C)CC[C@H](O)C(C)(C)[C@@H]5CC[C@]43C)[C@@H]12`, the CC50 at 72 h in data set [1] was more than 32800 nM. Also, in data set [2], the EC50 was 25 nM. Moreover, the inhibition entry in the data set on COS [12] and in the data set on COS [14] was “Active” each time.

In [15], `COc1ccnc2[nH]cc(C(=O)C(=O)N3CCN(C(=O)c4ccccc4)C[C@H]3C)c12` yielded an EC50 of 100 nM. In addition, the inhibition result with COS [16] and with COS [17] was “inactive” in each case.

For `C1=C2CCCN[C@H]2[C@@H]2C[C@H]1[C@H]1CCCCN1C2`, the CC50 at 72 h in [1] is more than 86200 nM. Also, the EC50 in data set [2] stood at 1750 nM; in [20], 1200 nM; in [15], 1600 nM. Moreover, the inhibition result (in [18]; in the data set on COS [21]; in the data set with COS [22]) was “Active” each time. Further, in data set [19], the inhibition entry is “inactive”.

For the origin of these results see ChEMBL document CHEMBL3804815, “Aloperine and Its Derivatives as a New Class of HIV-1 Entry Inhibitors” (ACS Med Chem Lett, 2016).
